# Like-named read-outs stand apart in the source and are kept apart here.
# Key:
# [1] = tested on: brain Aβ42 levels in Tg2576 mice; experiment: Acute oral dosing of three-month-old Tg2576 mice, brain Aβ ELISA; type: in vivo, mouse; details: Tg2576 mice
# Procedure: NSAIDs were dissolved in an appropriate vehicle. Dimethyl sulfoxide (DMSO), ethanol, and ethyl acetate are some examples. The NSAID solution was mixed with Kool-Aid and administered orally using a medicine dropper. […] At two hours after the final doses were administered, animals were sacrificed, and SDS soluble Aβ40 and Aβ42 were analyzed using ELISA.
# Three month old mice have high levels of soluble Aβ in the brain but no Aβ deposition (see Hsiao et al. (1996) Science 274:99-102). […] Brain levels of SDS-soluble Aβ40 and Aβ42 were measured using ELISA.
# Compounds were administered orally.
# [2] = plasma concentration of the drug; cited from earlier work
# APP processing = experiment: Western blot of APP, APP CTFs and sAPP, CHO cells expressing APP751; type: cell-based, Chinese hamster
# Description: Expression of holo-APP and APP C-terminal fragments (CTFs) was examined by Western blot analysis using antibody CT-15. APP secretion was examined by Western blotting using a mixture of 5A3/IG7 antibodies. APP turnover was examined by pulse labeling of CHO cells with 150 μCi [^35S]-methionine for fifteen minutes followed by a cold chase step for up to four hours. Cell lysates were immunoprecipitated with antibody CT-15, subjected to SDS-PAGE, and analyzed by phosphor imaging.
# Cell lysates were prepared, and steady-state APP levels were examined using 4-12% gradient-gel electrophoresis and western blotting using the polyclonal antibody CT15.
# Aβ42 secretion [3] = experiment: Primary in vitro screen, CHO-APP695NL,I,his cells, end-specific Aβ40 and Aβ42 ELISAs; type: cell-based, Chinese hamster; details: Cricetulus griseus, 6 h
# Procedure: Aβ40 and Aβ42 levels in culture supernatants were determined for each time points using ELISA.
# In a primary screen, the effects of NSAIDs on Aβ42 secretion by a CHO cell line that expressed APP(CHO-APP695NL,I,his) were examined. Duplicate cell cultures were treated with (a) a vehicle, (b) 10 μM of NSAID, or (c) 100 μM of NSAID.
# To determine Aβ40 and Aβ42 levels, six-hour culture supernatants taken from cells grown in a single well of a twenty-four-well plate were used in end-specific Aβ40 and Aβ42 ELISAs (Suzuki, et al. (1994) Sci 264:[…]). Aβ40 and Aβ42 levels of cultures treated with NSAID were compared with those of cultures treated with the vehicle alone. […] NSAIDs that caused either selective reduction of Aβ42 levels or reduction in both Aβ40 and Aβ42 levels are subjected to a secondary screen.
# Aβ42 secretion [4] = experiment: Aβ40/Aβ42 ELISA of culture supernatants, CHO cells expressing APP751 and PS-1 mutant M146L; type: cell-based, Chinese hamster
# Procedure: (§1) Cell cultures were maintained in standard cell culture media supplemented with 10% fetal bovine serum and 100 U/mL penicillin/streptomycin (Life Technologies Inc., Germany).
# (§2) For analyses of Aβ secretion, APP processing, and notch cleavage, cells were cultured in serum-containing media and pretreated overnight with a specific NSAID. The next day, media were changed and cultures were treated with the same NSAID for another 24 hours.
# (§3) Aβ was detected by sandwich enzyme-linked immunosorbent assay (ELISA) as described by Murphy et al. (2000) J Biol Chem 275:26277-84. Following NSAID treatment, culture supernatants were collected, and cell debris was removed by centrifugation. Complete protease inhibitor cocktail (Roche Molecular Biochemicals, IN, USA) was added to the media and Aβ40 and Aβ42 levels were quantified using end-specific Aβ ELISAs. All measurements were performed in duplicate.
# (§4) Levels of Aβ40 and Aβ42 in culture supernatants were analyzed using ELISA. […] Aβ42/Aβ40 ratios and total Aβ levels (i.e., the sum of Aβ40 and Aβ42 values) were normalized to values obtained from DMSO-treated cells. Results shown were averages of two or three experiments performed in duplicate.
# Aβ40 and Aβ42 levels in culture supernatants were analyzed using ELISA as described in Example 3. […] Aβ42/Aβ40 ratios and total Aβ levels were normalized to values obtained from ethanol-treated cells. Results shown were averages of two or three experiments, each performed in duplicate.
# Aβ levels in the brain = details: long-term transgenic mouse studies; cited from earlier work
# [5] = tested on: Notch intramembrane cleavage; experiment: Notch intramembrane cleavage and NICD formation in HEK293 cells; type: cell-based
# Description: Two Notch-encoding vector constructs were used in examining Notch processing. These were a construct expressing a myc-tagged NH2-terminal truncated Notch-1 polypeptide (NotchΔEMV), and a construct expressing only the Notch intracellular cytoplasmic domain (NICD) (see Kopan et al. (1996) Proc Natl Acad Sci USA 93:1683-8). In the construct expressing a myc-tagged NH2-terminal truncated Notch-1 polypeptide, the start codon, a methionine at position 1726, was mutated to a valine to eliminate translation initiation.
# Notch intramembrane cleavage and formation of NICD were analyzed in kidney HEK293 cells. The myc-tagged NotchΔEMV construct encoding a constitutively cleaved Notch variant was transiently transfected into HEK293 cells. […] Then they were pulse labeled with ^35S-methionine for thirty minutes and chased for two hours. Cell lysates were prepared and subjected to immunoprecipitation with monoclonal antibody 9E10. Immunoprecipitated proteins were subjected to SDS-PAGE and phosphor imaging analyses.
# Aβ42 secretion [6] = experiment: Aβ secretion in kidney HEK293 cells; type: cell-based; details: data not shown
# Procedure: as §1, §2, §3, §4
# Aβ species [7] = experiment: Immunoprecipitation/mass spectrometry of secreted Aβ species, CHO cells expressing APP751; type: cell-based, Chinese hamster
# Procedure: Secretion of Aβ peptides was analyzed using immunoprecipitation/mass spectrometry as described by Wang et al. (1996) J Biol Chem 271:31894-902. Briefly, 1 mL amount of culture supernatant was subjected to immunoprecipitation using the monoclonal antibody 4G8 (Senetek, CA, USA). Molecular masses and concentrations of Aβ peptides were measured using a matrix assisted laser desorption/ionization time-of-flight (MALDI-TOF) mass spectrometer. To compare the concentrations of individual Aβ species in culture supernatants, synthetic Aβ12-28 peptides (Sigma, MO, USA) were added to the supernatant samples as internal standards and relative peak heights were calculated.
# To examine Aβ species secreted by cells treated with sulindac sulfide, immunoprecipitation and mass spectrometry analyses were performed. […] Various Aβ species including Aβ1-42, Aβ1-39, Aβ1-38, and Aβ1-37 were quantified. […] Duplicate measurements were used in generating the bar graph. […] Increases in Aβ1-38 levels were dose-dependent.
# Aβ42 secretion [8] = experiment: Aβ ELISA, primary fibroblasts from COX-1/COX-2 double-knockout mice expressing APP695; type: cell-based; details: primary mouse embryonic fibroblasts; data not shown
# Description: as §1, §3
# Aβ species [9] = experiment: Bicine/Urea Aβ western blot, CHO cells expressing APP751 and mutant PS-1; type: cell-based, Chinese hamster; details: 60 μM or 80 μM, compared with DMSO
# Procedure: Bicine/Urea Aβ western blot analysis was performed as described by Wiltfang et al. (1997) Electrophoresis 18:527-32. A 1 mL amount of culture supernatant was subjected to immunoprecipitation using monoclonal antibody 26D6. Immunoprecipitates were mixed with sample buffer and heated to 95° C. for five minutes. Eluant samples were separated on Bicine/Urea gels, then transferred to nitrocellulose membranes, and probed with antibody 26D6. Standard Aβ1-40, Aβ1-42 and Aβ1-38 peptides (Sigma, MO, USA) were used for identification of the Aβ species.
# AP polypeptides were immunoprecipitated from culture supernatants of CHO cells expressing APP751 and mutant PS-1. Immunoprecipitates were separated on an SDS-urea gel system that can resolve individual Aβ species (see Wiltfang et al. (1997) Electrophoresis 18:527-32). Standard Aβ1-38, Aβ1-40, and Aβ1-42 peptides were included for identification of different Aβ species.
# CHO or HS683 cells = experiment: NSAID cell toxicity, MTT-assay or [3H]-thymidine incorporation assay; details: concentrations up to 100 μM; data not shown
# Description: NSAID toxicity in CHO or HS683 cells was examined using standard MTT-assay (3-(4,5-Dimethyl-2-thiazolylyl)-2,5-diphenyl-2H-tetrazolium Bromide) or [^3H]-thymidine incorporation assay.
# [10] = three month-old, 50 mg/kg/day orally for three days, SDS-soluble, mean ± SD
# [11] = treatment for three days, 50 mg/kg/day
structure (smiles),measurement,setting,value
"CC(C)Cc1ccc(C(C)C(=O)O)cc1 (stereo not shown) [Ibuprofen, ibuprofen]",Brain levels of Aβ40,[1]; [10],2620 ± 246 fmol/gm
same,Brain levels of Aβ42,[1]; [10],734 ± 302 fmol/gm
same,% Aβ42 in brain,"[1]; three month-old, 50 mg/kg/day orally for three days, mean ± SD",21.5 ± 7.7 %
same,Aβ40 levels in the brain,[1]; [11],no change
same,reduction in Aβ42 levels in the brain,[1]; [11],approximately 30%
same,Plasma,[2],40 to 111 µM
same,accumulation of APP-CTFs,"APP processing; 500 μM, data not shown",did not cause
same,activity at 10 µM,"Aβ42 secretion [3]; 10 μM, six-hour culture supernatants, read-out: % Control % Aβ42",82%
same,activity at 10 µM,"Aβ42 secretion [3]; 10 μM, six-hour culture supernatants, read-out: % Control Aβ40",102%
same,activity at 10 µM,"Aβ42 secretion [3]; 10 μM, six-hour culture supernatants, read-out: % Control Aβ42",80%
same,activity at 100 µM,"Aβ42 secretion [3]; six-hour culture supernatants, read-out: % Control % Aβ42",81%
same,activity at 100 µM,"Aβ42 secretion [3]; six-hour culture supernatants, read-out: % Control Aβ40",95%
same,activity at 100 µM,"Aβ42 secretion [3]; six-hour culture supernatants, read-out: % Control Aβ42",74%
same,total Aβ levels,Aβ42 secretion [4]; concentrations up to 500 μM,not significantly affected
same,"Aβ levels in the brain, lower when treated than untreated",Aβ levels in the brain,about 38%
same,inhibition of Notch cleavage,"[5]; 500 μM, data not shown",did not cause
"CSc1ccc(/C=C2/C(C)=C(CC(=O)O)c3cc(F)ccc32)cc1 [Sulindac sulfide, sulindac sulfide]",Aβ42 secretion,Aβ42 secretion [6],reduced Aβ42 secretion
same,Plasma,[2],14.6 µM
same,"CTF levels (western blot, CT15)",APP processing; compared with DMSO,nor an increase in CTF levels was observed
same,"steady-state APP levels (western blot, CT15)",APP processing; compared with DMSO,neither a change in APP levels
same,secretion of the APP ectodomain (sAPP),"APP processing; increasing concentrations, 5A3/1G7 antibodies",no significant change
same,Aβ42 secretion (mass spectrometry),Aβ species [7]; 75-100 μM,strong reduction
same,levels of Aβ40 (mass spectrometry),Aβ species [7]; 75-100 μM,largely unaffected
same,increases in Aβ1-38 levels,Aβ species [7]; 75 or 100 μM,dose-dependent
same,other Aβ peptide levels,Aβ species [7]; compared with DMSO,did not vary consistently
same,Aβ42 secretion,Aβ42 secretion [8],reduced Aβ42 secretion
same,activity at 10 µM,Aβ42 secretion [3]; read-out: % Control % Aβ42,65%
same,activity at 10 µM,Aβ42 secretion [3]; read-out: % Control Aβ40,97%
same,activity at 10 µM,Aβ42 secretion [3]; read-out: % Control Aβ42,57%
same,immuno-reactive band corresponding to Aβ1-38,Aβ species [9],equivalent increase in the intensity
same,immuno-reactive band corresponding to Aβ42,Aβ species [9],reduction in the intensity
same,total Aβ level (sum of Aβ40 and Aβ42),Aβ42 secretion [4]; sulindac sulfide concentrations of FIG. 1,No significant reduction
same,cell toxicity,CHO or HS683 cells,No cell toxicity was observed
same,Notch cleavage and NICD formation,"[5]; 125 μM for 36 hours, HEK293 cells transfected with NotchΔEMV",did not impair Notch cleavage and NICD formation
